Assay results published in patent publication EP0007716A1, “R-N-(2-phenyl-2-hydroxyethyl)-3-phenylpropyl amines, their formulations, use and preparation” (ELI LILLY AND COMPANY, priority 1978, dated 1980).

System: dogs with induced myocardial infarction
Test: Inotropic potency on intravenous administration to dogs with induced myocardial infarction
Format: in vivo
Details: for ED50: Canis lupus familiaris, dose required to effect a fifty percent increase in contractility, four dogs with induced myocardial infarction, read-out: Contractile potency (mcg./kg.)ED50; for Blood pressure change (mm/Hg)ED50: change in blood pressure attributable to the drug at the ED50 dose; for Blood pressure change (mm/Hg)ED50 / Heart rate increase (beats/min.)ED50: dogs with induced myocardial infarction; for Heart rate increase (beats/min.)ED50: increase in heart rate observed at the ED50 dose
Experimental: The compounds provided by this invention have been evaluated for their inotropic potency in anesthetized dogs and in conscious dogs with implanted cardiovascular transducers. The heart rate, cardiac output, systolic pressure and the derivative of the left ventricular pressure, which is the index of cardiac contractility, were measured.
Column 1 lists the compounds evaluated according to the test. Each of the compounds evaluated was administered intravenously to four dogs with induced myocardial infarction. Column 2 records the contractile potency of each compound as the dose in mcg./kg. of body weight required to effect a fifty percent increase in contractility (ED50). Column 3 presents the increase in heart rate observed at the EDSO dose. Column 4 records the change in blood pressure attributable to the administered drug.

| SMILES | ED50 | Blood pressure change (mm/Hg)ED50 | Heart rate increase (beats/min.)ED50 |
| --- | --- | --- | --- |
| Oc1ccc(CCCNC[C@H](O)c2cccc(O)c2)cc1 [R-N-[2-(3-hydroxyphenyl)-2-hydroxyethyl]-3-(4-hydroxyphenyl)propylamine] | 5 µg/kg | +1 mm/Hg | 12 beats/min. |
| Oc1ccc([C@@H](O)CNCCCc2cccc(O)c2)cc1 [R-N-[2-(4-hydroxyphenyl)-2-hydroxyethyl]-3-(3-hydroxyphenyl)propylamine] | 1 µg/kg | -4 mm/Hg | 16 beats/min. |
| Oc1ccc(CCCNC[C@H](O)c2ccc(O)cc2)cc1 [R-N-[2-(4-hydroxyphenyl)-2-hydroxyethyl]-3-(4-hydroxy-phenyl)propylamine] | 4 µg/kg | +4 mm/Hg | 10 beats/min. |
| Oc1cccc(CCCNC[C@H](O)c2cccc(O)c2)c1 [R-N-[2-(3-Hydroxyphenyl)-2-hydroxyethyl]-3-(3-hydroxyphenyl)propylamine] | 1 µg/kg | +7 mm/Hg | 14 beats/min. |
